# From patent US20190117634A1, “Treatment of Vulvodynia” (Gruenenthal GmbH, priority 2017, published 2019)
# Test: in vitro permeation/penetration in porcine vaginal tissue (Franz diffusion cell)
# Format: in vitro ADME
# Protocol: The permeation/penetration of the formulation according to Example 1 in porcine vaginal tissue was assessed by in vitro experiments.
# The in vitro experiments involved the use of a Franz diffusion cell designed to mimic the physiological and anatomical conditions of porcine vaginal tissue in situ. Porcine vaginal tissue skin was positioned between the two halves of a Franz diffusion cell with the vaginal epithelium facing the donor compartment allowing for drug product application. The other side of the porcine vaginal tissue skin faced a receiver fluid comprising 2% w/v Tween 80 in 20% v/v PEG 400 in water.
# Prior to dosing of the formulation on the tissue, the integrity of the tissue was assessed as follows: • (i) Porcine vaginal tissue was mounted between the donor and receiver compartments and the cells were sealed together using Parafilm®. • (ii) The donor and receiver chambers were filled with PBS solution and a small magnetic follower was placed in the receiver compartment. • (iii) Cells were equilibrated in a water bath, ensuring a membrane temperature of 32° C. for 30 min. • (iv) The electrodes of the ISO-TECH LCR821 Meter were placed in the receiver chamber through the sampling arm and the donor chamber and the LCR was set at 100 Hz and set to ‘R’ for resistance. • (v) The resistance of the tissue in each Franz cell was measured using a ISO-TECH LCR821 Meter (SOP 3174). Cells with a resistance below the acceptable limits were discarded and remounted.
# Following the tissue integrity testing, the PBS solutions were removed from each compartment and the receiver compartments of cells passing the resistance criteria were filled with receiver fluid. Each cell was then equilibrated to ensure a surface temperature of 32° C. (external skin surface temperature) for at least 30 min prior to dosing. An additional Franz cell was also mounted but not dosed (to act as a blank) to assess interference with sample quantification.
# A positive displacement pipette was used to apply 6-8 mg of the formulation of table 1 to the tissue surface. Prior to application the weight of each test formulation was verified by weighing the amount dispensed by the positive displacement pipette into an empty vial (n=6).
# Receiver fluid (200 μL) was removed at the following time points t=0, 1, 2, 4, 6 and 24 h and transferred to a HPLC vial for analysis. Fresh pre-warmed (37° C.) receiver fluid was used to replace the receiver fluid removed at each time point. Following the 24 h time point, remaining receiver fluid was removed from the Franz cells and the drug was recovered. […]
# [1] = formulation of Example 1, after 24 h, Franz cell
structure (smiles),measurement,setting,value
"CN(C)[C@]1(c2cccc(F)c2)CC[C@]2(CC1)c1[nH]c3ccccc3c1CCN2C(=O)/C=C/c1ccccc1 [pharmacologically active compound, cis-(E)-4-(3-fluorophenyl)-2′,3′,4′,9′-tetrahydro-N,N-dimethyl-2′-(1-oxo-3-phenyl-2-propenyl)-spiro[cyclohexane-1,1′[1H]-pyrido[3,4-b]indol]-4-amine]",Mean recovery of the pharmacologically active compound from the epithelium of porcine vaginal tissue,"formulation of Example 1 (2.60 wt.-% compound), 6-8 mg applied, after 24 h, Franz cell, 32° C.",9.72 μg
same,Mean recovery of the pharmacologically active compound from the epithelium of porcine vaginal tissue,[1],810.21 μg/mL
same,Total concentration presented to vaginal epithelium,[1],1596.04 µM
same,permeation into the epithelium of porcine vaginal tissue (in words),"formulation of Example 1, in vitro, 24 h",permeates into the epithelium of porcine vaginal tissue
